Data from US20040037856A1, “Use of compounds containing a thio-ether, sulphoxide or sulphone function as cosmetic anti-pollution agent” (priority 2000, published 2004).

Key:
human keratinocytes [1] = test: Ozone-induced lipid hydroperoxides (DCFH-DA fluorescence) in monolayer culture of human keratinocytes; format: cell-based; details: for % fluorescence observed ± SEM in the presence of CMC, relative to the unprotected controls: 24 h pretreatment with CMC 0.5 mg/ml, CMC 1 mg/ml in PBS during exposure (b102 says 200 μM), controls = 100%, n=4
Protocol: Ozone has the capacity to oxidize cell constituents, especially generating carbonylated proteins and lipid hydroperoxides. Quantification of the lipid hydroperoxides is one means of measuring the oxidative stress induced by exposing skin tissue to this pollutant. A decrease in their content indicates a protective effect. The study was performed on a monolayer culture of human keratinocytes. The cells are inoculated on D-3 into 48-well dishes at a rate of 25 000 cells/cm^2 in 500 μl of culture medium. The incubations are performed at 37° C., 5% CO2 under a humid atmosphere. The cells were pretreated for 24 hours with CMC (0.5 mg/ml, half-maximal dose that is nontoxic to the cells, dissolved in the culture medium). Hydroperoxides constitute an intracellular stress marker. They are detected and quantified by means of a fluorescence technique (Lebel C. P., Ischiropoulos H. and Bondy S. C. (1992) Evaluation of the probe 2,7-dichlorofluorescin as an indicator of Reactive Oxygen Species formation and oxidative stress. Chem. Res. Toxicol.; 5: 227-231). In the presence of intracellular hydroperoxides and peroxidases, DCFH is oxidized to fluorescent 2,7-dichlorofluorescein (DCF). The cells, pretreated for 24 hours with CMC, are then washed with PBS buffer and placed in contact for 30 minutes with a solution of DCFH-DA (500 μl/well), prepared in the culture medium to a concentration of 320 μM. The cells are again rinsed with PBS buffer and then placed in contact with a CMC solution at a concentration of 1 mg/ml in PBS (100 μl/well). They are then exposed to ozone (1 ppm), under a humid atmosphere, in an incubator set at 37° C. The formation of fluorescent DCF (excitation filter at 485 nm and emission filter at 530 nm) resulting from the production of hydroperoxides is measured after different times of exposure to ozone: 0, 5, 10 and 20 minutes. Toxicity of ozone toward human keratinocytes in culture, in the absence and presence of S-carboxymethylcysteine at a concentration of 200 μM, as a function of the exposure time (n=4). For each time, the fluorescence values of the unprotected controls are set at 100%. The results in the presence of CMC are then expressed relative to this control value. […] This protection is at a maximum from 5 minutes of exposure onward (67.7% drop in induced stress). It is still significant after 20 minutes of exposure (53.5% drop in induced stress) relative to the unprotected controls.

human keratinocytes [2] = test: Toxicity of CMC to the keratinocytes (nontoxic dose); format: cell-based; details: dissolved in the culture medium, 24 hours
Protocol: The study was performed on a monolayer culture of human keratinocytes. The cells are inoculated on D-3 into 48-well dishes at a rate of 25 000 cells/cm^2 in 500 μl of culture medium. The incubations are performed at 37° C., 5% CO2 under a humid atmosphere.
The cells were pretreated for 24 hours with CMC (0.5 mg/ml, half-maximal dose that is nontoxic to the cells, dissolved in the culture medium).

N[C@@H](CSCC(=O)O)C(=O)O [CMC, S-carboxymethylcysteine]
% fluorescence observed ± SEM in the presence of CMC, relative to the unprotected controls (human keratinocytes [1]; 5 min. of contact with ozone (1 ppm)): 32.4 ± 5.9% | drop in induced stress relative to the unprotected controls (human keratinocytes [1]; 5 minutes of exposure to ozone): 67.7% | % fluorescence observed ± SEM in the presence of CMC, relative to the unprotected controls (human keratinocytes [1]; 10 min. of contact with ozone (1 ppm)): 33.7 ± 5.0% | % fluorescence observed ± SEM in the presence of CMC, relative to the unprotected controls (human keratinocytes [1]; 20 min. of contact with ozone (1 ppm)): 46.5 ± 8.5% | drop in induced stress relative to the unprotected controls (human keratinocytes [1]; 20 minutes of exposure to ozone): 53.5% | protective effect against the effect induced by ozone (oxidative stress) (human keratinocytes [1]; human keratinocytes in vitro, ozone exposure): highly significant protective effect | half-maximal dose that is nontoxic to the cells (human keratinocytes [2]): 0.5 mg/mL
